{"source": "patent US20250176904A1", "about": "“PRE-DOSING METHOD OF ASSESSING DRUG BENEFITS IN PATIENTS” (priority 2022, published 2025)", "key": {"[1]": {"system": "Male Long Evans rats", "assay": "Progressive ratio responding for food (lever press, break point, session duration)", "assay_type": "in vivo", "description": "Animals and housing: Male Long Evans rats were used (source: Charles River Laboratories, St. Constant, Quebec). All study animals were singly housed in a vivarium under a 12 h light:dark cycle (lights on: 06:00 h-18:00 h). All behavioural testing was during the light phase. Rats were placed on a restricted diet regimen, where they were fed once a day with approximately 20 g of standard laboratory chow at the completion of testing procedures (16:00 h-18:00 h). For these animals, water was freely available except during testing. All animal use procedures were performed in accordance with the principles of the Canadian Council on Animal Care (CCAC).\nMethods: A total of 72 rats were used in the psilocybin experiment. The basic test design involved training animals to lever press for a food reward (45 mg Bioserv pellets) under a progressive ratio (PR) schedule in which the number of responses required to achieve a pellet increases for successive reinforcers. The progressive ratio was derived from the equation ratio=[5×e^(0.2×reinforcer #)−5], and was as follows: […], etc.\nSubjects were administered psilocybin (0.025, 0.05, 0.1 mg/kg) or vehicle control according to Latin square design, in which each animal received each treatment over repeated test sessions with 2-3 day intervals between each testing cycle. Subjects were also subgrouped into low responders (N=24) based on having the lowest average break point measure recorded over 7 days prior to testing and a separate analysis was conducted on this cohort.\nStatistical analysis: Data are presented as means±SEM. Data from the progressive ratio task was analysed by one way (treatment) repeated measures ANOVA (Statistica Version 11, Statsoft Inc. [2012]). In the event of a significant main effect, post-hoc comparisons were carried out with Dunnett's test for comparison of drug treatment to vehicle control. Both study cohorts of “All” and “Low responders” were analysed separately. In all cases the accepted level of significance was P<0.05. Effect sizes for group mean differences were also calculated using partial eta squared (Statistica Version 11, Statsoft Inc. [2012]). In addition a correlational analysis (parametric: Pearson R; non-parametric: Spearman R) was conducted at each dose level to look at the relationship between baseline (vehicle) response and magnitude of change in break point and lever press following each psilocybin dose."}, "[2]": {"system": "healthy volunteers", "conditions": "human, in vivo, po"}, "[3]": {"conditions": "all 72 rats, psilocybin 0.025, 0.05, 0.1 mg/kg SC vs vehicle, ANOVA main effect"}, "[4]": {"conditions": "low responder subgroup N=24, psilocybin 0.05-0.1 mg/kg relative to vehicle control"}}, "note": "Values joined by “and” are separate entries in the source; they are usually repeats but may differ in a detail not shown here. Identical values can stand only once. “Also recorded” adds a separate entry of the source."}
{"molecule": "CN(C)CCc1c[nH]c2cccc(OP(=O)(O)O)c12", "note": "[Psilocybin, 4-phosphoryloxy-N,N-dimethyltryptamine]", "values": [{"measurement": "number of lever press", "setting": "[1]; [3]", "value": "no main effect of treatment"}, {"measurement": "session duration", "setting": "[1]; [3]", "value": "no main effect of treatment"}, {"measurement": "break point", "setting": "[1]; all 72 rats, psilocybin 0.025, 0.05, 0.1 mg/kg SC vs vehicle, post-hoc comparison", "value": "no treatment group was significantly different to vehicle"}, {"measurement": "relationship between baseline responding and % change in break point or lever press", "setting": "[1]; low responder subgroup N=24, 0.025 mg/kg SC", "value": "no such correlation; also recorded: no significant correlation"}, {"measurement": "relationship between baseline responding and % change in break point or lever press", "setting": "[1]; low responder subgroup N=24, 0.05 mg/kg SC, Pearson R and Spearman R", "value": "inverse correlation; also recorded: significant correlation"}, {"measurement": "relationship between baseline responding and % change in break point or lever press", "setting": "[1]; low responder subgroup N=24, 0.1 mg/kg SC, Pearson R and Spearman R", "value": "inverse correlation; also recorded: significant correlation"}, {"measurement": "session duration", "setting": "[1]; low responder subgroup N=24, 0.1 mg/kg, mean±SEM", "value": "18.7 ± 2.5", "unit": "min"}, {"measurement": "session duration (treatment effect)", "setting": "[1]; low responder subgroup N=24, psilocybin 0.025-0.1 mg/kg vs vehicle, ANOVA", "value": "no treatment effect"}, {"measurement": "break point", "setting": "[1]; [4]", "value": "increases"}, {"measurement": "lever press", "setting": "[1]; [4]", "value": "increases"}, {"measurement": "RTI Median Five-Choice Reaction Time 2 Hr", "setting": "[2]", "value": "381 and 347 and 377 and 386.5 and 446 and 343"}, {"measurement": "RTI Median Five-Choice Reaction Time 4 Hr", "setting": "[2]", "value": "330 and 346 and 377 and 413 and 431 and 330.5"}]}
